The record followed here is EP4772510A2, “BENZAZEPINONE COMPOUND AND USE THEREOF” (HANGZHOU BIO-SINCERITY PHARMA-TECHCO., LTD., priority 2023, dated 2025).

Bounds are passed on as bounds.

The test system of assay [1] is U937 cells. As to the kind of experiment: Inhibition of TNF-α-induced necroptosis of U937 cells (CCK-8 assay). The class given is cell-based, human. The following applies: Homo sapiens, U-937, TNF-α 20 ng/mL + BV6 2 µM + Z-VAD-FMK 20 µM, 18 h. An excerpt:
Example 56: Inhibition of TNF-α-Induced Necroptosis of U937 Cells by Compounds
• 1. Experimental reagents: RPMI-1640 culture medium, fetal bovine serum, penicillin-streptomycin, TNF-α (MCE, HY-P7058), BV6 (MCE, HY-16701), Z-VAD-FMK (MCE, HY-16658B), and CCK-8 (Dalian Meilun Biotech Co., Ltd., MA0218). • 2. Experimental instruments: medical low-temperature freezer (Thermo Fisher scientific, 902-ULTS), electrically heated thermostatic water bath (Shanghai Bluepard Instruments Co., Ltd., CD-420), low-speed centrifuge (ANHUI USTC Zonkia Scientific Instruments Co., Ltd, SC-3616), carbon dioxide incubator (Shanghai Bluepard Instruments Co., Ltd., BPN-150CH(UV)), inverted microscope (Olympus, CKX53), multi-functional microplate reader (Thermo Tecan, SPARK), class-II biosafety cabinet (AIRTECH, BSC-1304IIA2), and desktop cell counter (Thermo Fisher Scientific, Countess II). • 3. Cell culturing: U937 cells (human histiocytic lymphoma cells) were cultured in an RPMI-1640 culture solution containing 10% fetal bovine serum and 1% penicillin-streptomycin solution in a 5% CO2 incubator at 37 °C and a saturated humidity. The cell culture flask was vertically placed in the incubator. A T25 culture flask was used as an example, the culture solution in the flask was 6-8 mL, and culture medium changes and cell passaging were performed 3-4 times a week. • 4. […] The culture medium was taken out from the freezer and transferred to the water bath for pre-heating. An appropriate amount of culture medium was then taken for use. • (2) The cell suspension was transferred to a 15 mL sterile centrifuge tube and centrifuged at 850 rpm for 4 min to collect U937 cells. • (3) The supernatant was carefully discarded, and an appropriate amount of culture medium was added. The mixture was gently pipetted using a pipette to homogenize the cells and thus prepare a single-cell suspension, and the cells were counted. • (4) The cells were diluted to 4 × 10^5/mL and seeded into a 96-well plate at 90 µL/well, such that the cell density in the 96-well plate was 3.6 × 10 ^4 cells/well. The cells were incubated in a 5% CO 2 incubator at 37 °C and a saturated humidity for 6 h, followed by the addition of compounds. • 4.2 Dilution and addition of compounds: • (1) TNF-α was dissolved in PBS to obtain a 100 µg/mL stock solution and aliquoted; Z-VAD-FMK was dissolved in DMSO to obtain a 10 mM stock solution and aliquoted; BV6 was dissolved in DMSO to obtain a 10 mM stock solution and aliquoted; GSK2982772 was dissolved in DMSO to obtain a 10 mM stock solution and aliquoted. One aliquot of each stock solution was stored at -20 °C for immediate use, while the remaining aliquots were stored at - 80 °C and used within their shelf life. • (2) RPMI-1640 culture medium containing TNF-α, BV6, and Z-VAD-FMK was prepared (5 µL/per well), such that the final concentrations of TNF-α, BV6, and Z-VAD-FMK were 20 ng/mL, 2 µM, and 20 µM, respectively. • (3) Each target compound was three-fold diluted with a culture medium to 8 concentration gradients, with each concentration set in duplicate (5 µL/well). The final concentrations of each target compound were 1000.00/333.33/111.11/37.04/12.35/4.12/1.37/0.46 nM. • (4) The 96-well plate containing 90 µL of cell suspension was taken out from an incubator, and a positive control group, test compound groups, and a DMSO (5‰) control group were set. 5 µL of RPMI-1640 culture solution containing TNF-α, BV6, and Z-VAD-FMK and 5 µL of culture solution containing the test compound were added to the positive control group and the test compound groups. After compound addition, the mixtures were cultured for 18 h, followed by the CCK-8 assay. • (5) The 96-well plate was taken out, and the CCK-8 reagent was carefully added at 10 µL/well. The mixtures were incubated at 37 °C for 2-4 h, and the absorbance value was measured at a wavelength of 450 nm. • 5. Evaluation of inhibitory activity of compounds on TNF-α-induced necroptosis of U937 [formula] […]

The test system of assay [2] is HT-29 cells. The assay is described as follows: Inhibition of TNF-α-induced necroptosis of HT-29 cells (SRB method). The format is cell-based, human. To be noted: Homo sapiens, HT-29, TNF-α 20 ng/mL + BV6 2 µM + Z-VAD-FMK 20 µM, 18 h. An excerpt: Example 57: Inhibition of TNF-α-Induced Necroptosis of HT-29 Cells by Compounds
• 1. Experimental reagents: McCOY's 5A culture medium, fetal bovine serum, penicillin-streptomycin, trypsin, PBS, TNF-α (MCE, HY-P7058), BV6 (MCE, HY-16701), Z-VAD-FMK (MCE, HY-16658B), SRB kit (Shanghai BestBio Biotechnology Co., Ltd., BB-4208-500T). • 2. Experimental instruments: medical low-temperature freezer (Thermo Fisher scientific, 902-ULTS), electrically heated thermostatic water bath (Shanghai Bluepard Instruments Co., Ltd., CD-420), low-speed centrifuge (ANHUI USTC Zonkia Scientific Instruments Co., Ltd, SC-3616), carbon dioxide incubator (Shanghai Bluepard Instruments Co., Ltd., BPN-150CH(UV)), inverted microscope (Olympus, CKX53), multi-functional microplate reader (Thermo Tecan, SPARK), class-II biosafety cabinet (AIRTECH, BSC-1304IIA2), and desktop cell counter (Thermo Fisher Scientific, Countess II). • 3. Cell culturing: HT-29 cells (human colon cancer cells) were cultured in a McCOY's 5A culture solution containing 10% fetal bovine serum and 1% penicillin-streptomycin solution in a 5% CO 2 at 37 °C and a saturated humidity, and culture medium changes and cell passaging were performed 3-4 times a week. • 4. […] The culture medium, trypsin, etc., were taken out from the freezer and transferred to the water bath for pre-heating. An appropriate amount of these substances was then taken for use. • (2) The old culture medium in the flask was aspirated using a sterile pipette and discarded, and the cells were washed 3 times with PBS. 1 mL of trypsin (25 cm^2 cell culture flask) was added into the flask, and the flask was gently shaken to allow the trypsin to cover all the cell surfaces. Digestion was performed in an incubator at 37 °C. After 2 min of digestion, the flask was placed under a microscope for observation. […] The mixture was gently pipetted using a pipette to homogenize the cells and thus prepare a single-cell suspension, and the cells were counted. • (5) The cells were diluted to 3 × 10^5/mL and seeded into a 96-well plate at 100 µL/well, such that there were 3 × 10^4 cells per well in the 96-well plate. The cells were incubated in a 5% CO2 incubator at 37 °C and a saturated humidity for 24 h, followed by the addition of compounds. • 4.2 Dilution and addition of compounds: • (1) TNF-α was dissolved in PBS to obtain a 100 µg/mL stock solution and aliquoted; Z-VAD-FMK was dissolved in DMSO to obtain a 10 mM stock solution and aliquoted; BV6 was dissolved in DMSO to obtain a 10 mM stock solution and aliquoted; GSK2982772 was dissolved in DMSO to obtain a 10 mM stock solution and aliquoted. One aliquot of each stock solution was stored at -20 °C for immediate use, while the remaining aliquots were stored at - 80 °C and used within their shelf life. • (2) McCOY's 5A culture solution containing TNF-α, BV6, and Z-VAD-FMK was prepared. For the positive control group and the test compound groups, the McCOY's 5A culture solution was added at 90 µL/well, and 10 µL of the culture medium containing the test compound was also added, thus making the final concentrations of TNF-α, BV6, and Z-VAD-FMK be 20 ng/mL, 2 µM, and 20 µM, respectively. For the DMSO (5‰) control group, 90 µL of the McCOY's 5A complete culture solution was added, and then 10 µL of DMSO was added, thus making the final concentration 5‰. • (3) Each target compound was three-fold diluted with a culture medium to 8 concentration gradients, with each concentration set in duplicate (10 µL/well). The final concentrations of each target compound were 1000.00/333.33/111.11/37.04/12.35/4.12/1.37/0.46 nM. • (4) The 96-well plate cultured for 24 h was taken out from the incubator, and the culture medium in the 96-well plate was carefully aspirated and discarded. A positive control group, test compound groups, and a DMSO (5‰) control group were set, and 10 µL of the corresponding compound was added to each group. […]
In general terms: In SRB staining, fixed cells bind dye roughly in proportion to their protein.

Take `O=C(NC1CCc2cc(C#Cc3ccncc3)cc3c2N(CC3)C1=O)c1nnc(Cc2c(F)cccc2F)[nH]1` (stereo not shown) [Compound I-12, 5-(2,6-difluorobenzyl)-N-(4-oxo-9-(pyridin-4-ylethynyl)-1,2,3,4,6,7-hexahydroazepino[3,2,1-hi]indol-3-yl)-4H-1,2,4-triazole-3-carboxamide]: the EC50 in assay [1] and in assay [2] was 10 to 100 nM each time.
As to `O=C(NC1CCc2cc(C#Cc3ccncc3)cc3c2N(CC3)C1=O)c1nnc(Cc2c(Cl)cccc2Cl)[nH]1` (stereo not shown) [Compound I-13, 5-(2,6-dichlorobenzyl)-N-(4-oxo-9-(pyridin-4-ylethynyl)-1,2,3,4,6,7-hexahydroazepino[3,2,1-hi]indol-3-yl)-4H-1,2,4-triazole-3-carboxamide], the EC50 in assay [1] and in assay [2] was above 200 nM in each case.
`Cn1cc(C#Cc2cc3c4c(c2)CCN4C(=O)C(NC(=O)c2cccc(Oc4ccccc4)n2)CC3)cn1` (stereo not shown) [Compound V-1, N-(9-((1-methyl-1H-pyrazol-4-yl)ethynyl)-4-oxo-1,2,3,4,6,7-hexahydroazepino[3,2,1-hi]indol-3-yl)-6-phenoxypicolinamide]: the half-maximal effective concentration (EC50) in assay [1] and in assay [2] was above 200 nM throughout.
Regarding `Cn1cc(C#Cc2cc3c4c(c2)CCN4C(=O)C(NC(=O)c2ccc(Oc4ccccc4)cn2)CC3)cn1` (stereo not shown) [Compound V-2, N-(9-((1-methyl-1H-pyrazol-4-yl)ethynyl)-4-oxo-1,2,3,4,6,7-hexahydroazepino[3,2,1-hi]indol-3-yl)-5-phenoxypicolinamide], the EC50 in assay [1] and in assay [2] was above 200 nM throughout.
Take `O=C(NC1CCc2ccc(C#Cc3ccccn3)c3c2N(CC3)C1=O)c1nnc(Cc2ccccc2)[nH]1` (stereo not shown) [II-1, 5-benzyl-N-(4-oxo-8-(pyridin-2-ylethynyl)-1,2,3,4,6,7-hexahydroazepino[3,2,1-hi]indol-3-yl)-4H-1,2,4-triazole-3-carboxamide]: the half-maximal effective concentration (EC50) in assay [1] and in assay [2] was 10 to 100 nM each time.
Turning to `O=C(NC1CCc2ccc(C#Cc3cccnc3)c3c2N(CC3)C1=O)c1nnc(Cc2ccccc2)[nH]1` (stereo not shown) [II-2, 5-benzyl-N-(4-oxo-8-(pyridin-3-ylethynyl)-1,2,3,4,6,7-hexahydroazepino[3,2,1-hi]indol-3-yl)-4H-1,2,4-triazole-3-carboxamide], the EC50 (commonly the concentration at which the effect is half-maximal) was in the range of 100 to 200 nM in assay [1] and 10 to 100 nM in assay [2].
As for `O=C(NC1CCc2ccc(C#CC3CC3)c3c2N(CC3)C1=O)c1nnc(Cc2ccccc2)[nH]1` (stereo not shown) [II-3, 5-benzyl-N-(8-(cyclopropylethynyl)-4-oxo-1,2,3,4,6,7-hexahydroazepino[3,2,1-hi]indol-3-yl)-4H-1,2,4-triazole-3-carboxamide], the EC50 is above 200 nM in assay [1] and 100 to 200 nM in assay [2].
Take `O=C(NC1CCc2ccc(C#Cc3ccncc3)c3c2N(CC3)C1=O)c1nnc(Cc2ccccc2)[nH]1` (stereo not shown) [II-4, 5-benzyl-N-(4-oxo-8-(pyridin-4-ylethynyl)-1,2,3,4,6,7-hexahydroazepino[3,2,1-hi]indol-3-yl)-4H-1,2,4-triazole-3-carboxamide]: the EC50 in assay [1] lay in the range of 10 to 100 nM; in assay [2], 100 to 200 nM.
On to `O=C(NC1CCc2cc(C#Cc3ccncc3)cc3c2N(CC3)C1=O)c1ncn(Cc2c(F)cccc2F)n1` (stereo not shown) [III-2, 1-(2,6-difluorobenzyl)-N-(4-oxo-9-(pyridin-4-ylethynyl)-1,2,3,4,6,7-hexahydroazepino[3,2,1-hi]indol-3-yl)-1H-1,2,4-triazole-3-carboxamide], for which the EC50 in assay [1] was below 5 nM; in assay [2], 10 to 100 nM.
On the same counts, the results for `O=C(NC1CCc2cc(C#Cc3ccncc3)cc3c2N(CC3)C1=O)c1ncn(Cc2ccccc2)n1` (stereo not shown) [III-3, 1-benzyl-N-(4-oxo-9-(pyridin-4-ylethynyl)-1,2,3,4,6,7-hexahydroazepino[3,2,1-hi]indol-3-yl)-1H-1,2,4-triazole-3-carboxamide] are 10 to 100 nM and 10 to 100 nM.
On the same counts, the results for `CC(C)(O)C#Cc1cc2c3c(c1)CCN3C(=O)C(NC(=O)c1ncn(Cc3c(F)cccc3F)n1)CC2` (stereo not shown) [III-4, 1-(2,6-difluorobenzyl)-N-(9-(3-hydroxy-3-methylbut-1-yn-1-yl)-4-oxo-1,2,3,4,6,7-hexahydroazepino[3,2,1-hi]indol-3-yl)-1H-1,2,4-triazole-3-carboxamide] are below 5 nM and below 5 nM.
